“Also recorded” adds a separate entry of the source.
Tests used:
OIR mice = experiment: Oxygen‐induced retinopathy (OIR) mouse model, retinal vasculature (CD31 whole‐mount); format: in vivo
Method: Figure 7 Normalized retinal vascularization upon topical application of TRAP1 inhibitors. A) HIF1α degradation induced by TRAP1 inhibitors. MIO‐M1 cells were incubated with various concentrations of TRAP1 inhibitors as indicated for 6 h under hypoxia and analyzed by western blotting. B) Quantification of HIF1α protein degradation. The HIF1α band intensities in western blot data obtained as in (A) were analyzed and compared. The data are mean ± SEM from four independent experiments. C) Vascular structure of P17 OIR mouse retinas after topical drug application. Vehicle and 2 mM TRAP1 inhibitors were topically administered to the left and right eyes, respectively, of OIR mice at P12 once per day for 5 days. At P17, mice were sacrificed and analyzed by whole‐mount staining with an anti‐CD31 antibody and confocal microscopy. Scale bar, 500 µm. D) Quantification of avascular areas and neovascular tuft. Retinal images collected as in (C) were quantitatively analyzed (n = 5 mice/group). Data information: Data are expressed as mean ± SEM. Student t‐test, ^*** P < 0.001; ^* […].
To induce OIR (Figure 1A), mouse pups were exposed to 75% oxygen at postnatal day 7 (P7) until P12 together with their mothers in a hyperoxic chamber (InVivo Cabinet Model 15; Coy Laboratory; Grass Lake, MI, USA). Hyperoxia‐exposed pups were returned to room air at P12 with nursing mothers until P17. At P17, mice were sacrificed, and eyes were enucleated.
For intravitreal injection, MitoQ was injected into the vitreous cavity using a Nanoliter 2000 microinjector (World Precision Instruments; Sarasota, FL, USA) fitted with glass capillary pipettes under anesthesia. In total, 1 µl MitoQ (0.1 mg/ml) was delivered into the right eye of an OIR mouse once at P12. The contralateral eye was injected with vehicle (0.1% DMSO prepared in distilled water) as a control. […]
Fixed eyes were dissected to isolate retinas under a microscope. […] Fluorescence images were acquired using an Axio Zoom fluorescence microscope (Zeiss; Oberkochen, Germany) or a LSM780 or LSM980 confocal microscope (Zeiss). […]

HIF1α = HIF1α degradation in MIO‐M1 cells under hypoxia (western blotting); format: cell-based, human; conditions: MIO‐M1 cells, 6 h under hypoxia
[1] = system: 3D human corneal epithelial (HCE) model, MCTT HCE; experiment: Eye irritation test with MCTT HCE (OECD test guideline 492); format: cell-based; conditions: 3D culture MCTT HCE, TRAP1 inhibitors at 2 mM, H&E staining images, n = 5, mean ± SEM
Method: (§1) An eye irritation test was performed using a 3D human corneal epithelial (HCE) model, called MCTT HCE (KeraSkin; Biosolution, Seoul, Republic of Korea), for OECD test guideline 492, following the manufacturer's instructions. In brief, HCE tissues were incubated overnight in medium provided by the supplier. Thereafter, 2 mM MitoQ, SB‐U014, and SB‐U015 were applied to the upper epithelial surface of HCE tissues and incubated for 10 min. After removing the drugs by washing the tissues with PBS, the tissues were further incubated for 16 h, and then subjected to the WST‐1 assay for viability assessment and fixed in 4% PFA for histological analysis. […]
(§2) their cytotoxic activities were analyzed in four independent experiments by trypan blue staining. The calculated IC50 values are presented in the normal cell cytotoxicity column in Table 1. […] A 3D culture of human corneal epithelium (MCTT HCE) was incubated with 2 mM TRAP1 inhibitors and analyzed by H&E staining.
(§3) The culture thickness (n = 5) was measured and analyzed (Table S1). […] After topical application of 2 mM MitoQ, SB-U014, or SB-U015 once daily for 6 days, the mouse cornea was harvested and analyzed by H&E staining. […]
(§4) A 3D culture of human corneal epithelium (MCTT HCE) was incubated with 2 mM TRAP1 inhibitors, and the percentage viability was analyzed by the WST-1 assay (n = 4). Absorbance was measured with a microplate reader. […]

[2] = as above; format: cell-based, human; conditions: human; 3D culture MCTT HCE, TRAP1 inhibitors at 2 mM, WST-1 assay, n = 4, mean ± SEM; read-out: Percentage viability (%)
Method: as §1, §2, §3, §4

[3] = system: mouse primary Müller cells; experiment: Normal cell cytotoxicity in primary Müller cells (trypan blue staining); format: cell-based; conditions: 24 hr under hypoxia, n = 4, mean ± SEM
Method: (§5) Mouse primary Müller cells were isolated as reported previously.^[ [43] ^] In brief, retinas were isolated from P5–P7 mice and dissociated using a Papain Dissociation Kit (Worthington Industries; Columbus, OH, USA). Collected retinal cells were incubated on a plate coated with 0.1% gelatin (Sigma), and the culture media (DMEM supplemented with 10% FBS and 1% penicillin‐streptomycin) was changed once every 2 days. Cells were subcultured into a new plate and incubated for another 7 days. Adherent cells were largely primary Müller cells, as confirmed by immunocytochemical analysis using an anti‐glutamine synthetase antibody (Millipore). […]
(§6) bar, 500 μm. B) Quantification of avascular and neovascular tuft areas in OIR mice intravitreally injected with MitoQ (n = 5 mice/group). […] Harvested retinal samples were whole-mounted and analyzed as in (A). […]
(§7) Scale bar, 500 μm. D) Quantification of avascular and neovascular tuft areas in OIR mice topically treated with MitoQ (n = 6 mice/group). […]
as §2
(§8) The culture thickness (n = 5) was measured and analyzed (Table S1). […]

[4] = as above; format: cell-based; conditions: mouse, primary Müller cells from mouse retina, 24 hr under hypoxia, n = 4, mean ± SEM
Method: as §5, §6, §7, §2, §8

Compound: COC1=C(OC)C(=O)C(CCCCCCCCCC[P+](c2ccccc2)(c2ccccc2)c2ccccc2)=C(C)C1=O [MitoQ, mitoquinone]
- avascular and neovascular tuft areas in OIR mice (OIR mice; intravitreal injection, 1 µl of 0.1 mg/ml once at P12, analysed at P17, n = 5 mice/group): significantly reduced; also recorded: dramatically reduced
- avascular and neovascular tuft areas in OIR mice (OIR mice; topical, 2 mM once per day for 5 days from P12, analysed at P17, n = 5 mice/group): reduced
- avascular and neovascular tuft areas in OIR mice (OIR mice; topical, 10 μl of 1 mM three times daily from P12 to P17, n = 6 mice/group): reduced; also recorded: potent activity
- IC50 (HIF1α; Homo sapiens, western blot band intensity, n = 4, mean ± SEM): 0.077 ± 0.016 µM
- potency in inducing the degradation of HIF1α relative to gamitrinib (HIF1α): more than 10 fold
- Thickness (μm) [1]: 53.43 ± 2.79 μm
- viability at 10 min, 2 mM [2]: 63.47 ± 0.23%
- IC50 [3]: 22.5 ± 0.46 µM
- IC50 at 24 h [4]: 22 µM

Reference: PMC10787068, “Targeting the Mitochondrial Chaperone TRAP1 Alleviates Vascular Pathologies in Ischemic Retinopathy” (Advanced Science, 2023)
